Active and inactive are the calls of the source. No cut-off for these calls is given here.
Experiments:
[1] = test system: Brassica oleracea; assay: Effect on tocopherol level in Brassica oleracea (Broccoli) seedlings grown in hydroponic culture containing compound at 1 mg/L after 40 days after compound treatment; format: functional, organism-based
[2] = test system: Brassica oleracea; assay: Effect on chlorophyll level assessed per dry weight in Brassica oleracea (Broccoli) seedlings grown in hydroponic culture containing compound at 1 mg/L after 40 days after compound treatment (reference value: 181 +/- 23 mg/kg); format: functional
[3] = test system: Root; assay: Drug level in roots of Brassica oleracea (Broccoli) seedlings grown in hydroponic culture containing compound at 1 mg/L in presence of 1 mg/L CdCl2 assessed as SeMetSeCys level measured after 40 days after compound treatment; format: ADME; details: 960 h
[4] = test system: Fruit; assay: Drug level in fruits of Brassica oleracea (Broccoli) seedlings grown in hydroponic culture containing 1 mg/L in presence of 1 mg/L CdCl2 measured after 40 days after compound treatment; format: ADME; details: 960 h
[5] = test system: Leaf; assay: Drug level in leaves of Brassica oleracea (Broccoli) seedlings grown in hydroponic culture containing 1 mg/L measured after 40 days after compound treatment; format: ADME; details: 960 h
[6] = test system: Brassica oleracea; assay: Protective effect against cadmium-induced toxicity in Brassica oleracea (Broccoli) seedlings grown in hydroponic culture containing compound at 1 mg/L in presence of 1 mg/L CdCl2 assessed as attenuation of reduction in tocopherol level after 40 days after compound treatment by spectrophotometry; format: functional; set-up: scale not given: the % may be the effect or the level left
[7] = test system: Root; assay: Drug level in roots of Brassica oleracea (Broccoli) seedlings grown in hydroponic culture containing compound at 1 mg/L assessed as SeMet level measured after 40 days after compound treatment; format: ADME; details: 960 h
[8] = test system: Leaf; assay: Drug level in leaves of Brassica oleracea (Broccoli) seedlings grown in hydroponic culture containing 1 mg/L in presence of 1 mg/L CdCl2 measured after 40 days after compound treatment; format: ADME; details: 960 h
[9] = test system: Leaf; assay: Effect on cadmium level in leaves of Brassica oleracea (Broccoli) seedlings grown in hydroponic culture containing 1 mg/L measured after 40 days after compound treatment; format: ADME; details: 960 h
[10] = test system: Brassica oleracea; assay: Effect on chlorophyll level assessed per dry weight in Brassica oleracea (Broccoli) seedlings grown in hydroponic culture containing compound at 1 mg/L after 10 days after compound treatment (reference value: 200 +/- 26 mg/kg); format: functional
[11] = test system: Leaf; assay: Drug level in leaves of Brassica oleracea (Broccoli) seedlings grown in hydroponic culture containing compound at 1 mg/L in presence of 1 mg/L CdCl2 assessed as SeMet level measured after 40 days after compound treatment; format: ADME; details: 960 h
[12] = test system: Fruit; assay: Drug level in fruits of Brassica oleracea (Broccoli) seedlings grown in hydroponic culture containing compound at 1 mg/L in presence of 1 mg/L CdCl2 assessed as SeMet level measured after 40 days after compound treatment; format: ADME; details: 960 h
[13] = test system: Fruit; assay: Drug level in fruits of Brassica oleracea (Broccoli) seedlings grown in hydroponic culture containing compound at 1 mg/L in presence of 1 mg/L CdCl2 assessed as Se(IV) level measured after 40 days after compound treatment; format: ADME; details: 960 h
[14] = test system: Brassica oleracea; assay: Reduction in MDA level in Brassica oleracea (Broccoli) seedlings grown in hydroponic culture containing compound at 1 mg/L after 30 days after compound treatment; format: functional, organism-based
[15] = test system: Root; assay: Effect on cadmium level in roots of Brassica oleracea (Broccoli) seedlings grown in hydroponic culture containing 1 mg/L measured after 40 days after compound treatment; format: ADME; details: 960 h
[16] = test system: Brassica oleracea; assay: (§1) Protective effect against cadmium-induced toxicity in Brassica oleracea (Broccoli) seedlings grown in hydroponic culture containing compound at 1 mg/L in presence of 1 mg/L CdCl2 assessed as chlorophyll level assessed per dry weight after 40 days after compound treatment by spectrophotometry (reference value: 118 +/- 12 mg/kg dry weight); format: functional
[17] = test system: Fruit; assay: Drug level in fruits of Brassica oleracea (Broccoli) seedlings grown in hydroponic culture containing compound at 1 mg/L assessed as SeMetSeCys level measured after 40 days after compound treatment; format: ADME; details: 960 h
[18] = test system: Brassica oleracea; assay: Protective effect against cadmium-induced toxicity in Brassica oleracea (Broccoli) seedlings grown in hydroponic culture containing compound at 1 mg/L in presence of 1 mg/L CdCl2 assessed as reduction in MDA level after 30 days after compound treatment by spectrophotometry; format: functional, organism-based
[19] = test system: Root; assay: Drug level in roots of Brassica oleracea (Broccoli) seedlings grown in hydroponic culture containing 1 mg/L measured after 40 days after compound treatment; format: ADME; details: 960 h
[20] = test system: Fruit; assay: Drug level in fruits of Brassica oleracea (Broccoli) seedlings grown in hydroponic culture containing compound at 1 mg/L assessed as SeMet level measured after 40 days after compound treatment; format: ADME; details: 960 h
[21] = test system: Fruit; assay: Effect on cadmium level in fruits of Brassica oleracea (Broccoli) seedlings grown in hydroponic culture containing 1 mg/L in presence of 1 mg/L CdCl2 measured after 40 days after compound treatment; format: ADME; details: 960 h
[22] = test system: Leaf; assay: Effect on cadmium level in leaves of Brassica oleracea (Broccoli) seedlings grown in hydroponic culture containing 1 mg/L in presence of 1 mg/L CdCl2 measured after 40 days after compound treatment; format: ADME; details: 960 h
[23] = test system: Fruit; assay: Drug level in fruits of Brassica oleracea (Broccoli) seedlings grown in hydroponic culture containing 1 mg/L measured after 40 days after compound treatment; format: ADME; details: 960 h
[24] = test system: Root; assay: Drug level in roots of Brassica oleracea (Broccoli) seedlings grown in hydroponic culture containing compound at 1 mg/L assessed as Se(IV) level measured after 40 days after compound treatment; format: ADME; details: 960 h
[25] = test system: Root; assay: Effect on cadmium level in roots of Brassica oleracea (Broccoli) seedlings grown in hydroponic culture containing 1 mg/L in presence of 1 mg/L CdCl2 measured after 40 days after compound treatment; format: ADME; details: 960 h
[26] = test system: Fruit; assay: Effect on cadmium level in fruits of Brassica oleracea (Broccoli) seedlings grown in hydroponic culture containing 1 mg/L measured after 40 days after compound treatment; format: ADME; details: 960 h
[27] = test system: Root; assay: Drug level in roots of Brassica oleracea (Broccoli) seedlings grown in hydroponic culture containing compound at 1 mg/L assessed as SeMetSeCys level measured after 40 days after compound treatment; format: ADME; details: 960 h
[28] = test system: Fruit; assay: Drug level in fruits of Brassica oleracea (Broccoli) seedlings grown in hydroponic culture containing compound at 1 mg/L assessed as Se(IV) level measured after 40 days after compound treatment; format: ADME; details: 960 h
[29] = test system: Leaf; assay: Drug level in leaves of Brassica oleracea (Broccoli) seedlings grown in hydroponic culture containing compound at 1 mg/L in presence of 1 mg/L CdCl2 assessed as Se(IV) level measured after 40 days after compound treatment; format: ADME; details: 960 h
[30] = test system: Leaf; assay: Drug level in leaves of Brassica oleracea (Broccoli) seedlings grown in hydroponic culture containing compound at 1 mg/L assessed as SeMetSeCys level measured after 40 days after compound treatment; format: ADME; details: 960 h
[31] = test system: Leaf; assay: Drug level in leaves of Brassica oleracea (Broccoli) seedlings grown in hydroponic culture containing compound at 1 mg/L in presence of 1 mg/L CdCl2 assessed as SeMetSeCys level measured after 40 days after compound treatment; format: ADME; details: 960 h
[32] = test system: Root; assay: Drug level in roots of Brassica oleracea (Broccoli) seedlings grown in hydroponic culture containing 1 mg/L in presence of 1 mg/L CdCl2 measured after 40 days after compound treatment; format: ADME; details: 960 h
[33] = test system: Leaf; assay: Drug level in leaves of Brassica oleracea (Broccoli) seedlings grown in hydroponic culture containing compound at 1 mg/L assessed as SeMet level measured after 40 days after compound treatment; format: ADME; details: 960 h
[34] = test system: Root; assay: Drug level in roots of Brassica oleracea (Broccoli) seedlings grown in hydroponic culture containing compound at 1 mg/L in presence of 1 mg/L CdCl2 assessed as Se(IV) level measured after 40 days after compound treatment; format: ADME; details: 960 h
[35] = test system: Brassica oleracea; assay: as §1, with “10” for “40”, “120” for “118”, “8” for “12”; format: functional
[36] = test system: Fruit; assay: Drug level in fruits of Brassica oleracea (Broccoli) seedlings grown in hydroponic culture containing compound at 1 mg/L in presence of 1 mg/L CdCl2 assessed as SeMetSeCys level measured after 40 days after compound treatment; format: ADME; details: 960 h
[37] = test system: Leaf; assay: Drug level in leaves of Brassica oleracea (Broccoli) seedlings grown in hydroponic culture containing compound at 1 mg/L assessed as Se(IV) level measured after 40 days after compound treatment; format: ADME; details: 960 h
[38] = test system: Root; assay: Drug level in roots of Brassica oleracea (Broccoli) seedlings grown in hydroponic culture containing compound at 1 mg/L in presence of 1 mg/L CdCl2 assessed as SeMet level measured after 40 days after compound treatment; format: ADME; details: 960 h

With O=[Se]([O-])[O-].[Na+].[Na+] [SODIUM SELENITE] the Activity [1] was “Active”, the Activity [2] was 148 mg/kg and the Drug uptake [3] was 3.4 mg/kg. For the same compound, the Drug uptake [4] was 10 mg/kg, the Drug uptake [5] was 2 mg/kg and the Activity [6] was 40%. For the same compound, the Drug uptake [7] was 6.1 mg/kg, the Drug uptake [8] was 1.54 mg/kg and the Activity [9] was 0.2 mg/kg. It also gave an Activity [10] of 155 mg/kg, a Drug uptake [11] of 0.62 mg/kg and a Drug uptake [12] of 0.24 mg/kg. For the same compound, the Drug uptake [13] was 0.039 mg/kg, the Activity [14] was “Active” and the Activity [15] was 0.36 mg/kg. The Activity [16] was 175 mg/kg, the Drug uptake [17] was 12.3 mg/kg and the Activity [18] was “Active”. It also gave a Drug uptake [19] of 20 mg/kg, a Drug uptake [20] of 7.2 mg/kg and an Activity [21] of 48 mg/kg. The Activity [22] was 7.5 mg/kg, the Drug uptake [23] was 27 mg/kg and the Drug uptake [24] was 1.4 mg/kg. The Activity [25] was 53 mg/kg, the Activity [26] was 0.4 mg/kg and the Drug uptake [27] was 3.6 mg/kg. It also gave a Drug uptake [28] of 1.89 mg/kg, a Drug uptake [29] of 0.09 mg/kg and a Drug uptake [30] of 0.71 mg/kg. For the same compound, the Drug uptake [31] was 0.65 mg/kg, the Drug uptake [32] was 21 mg/kg and the Drug uptake [33] was 0.59 mg/kg. The Drug uptake [34] was 1.6 mg/kg, the Activity [35] was 177 mg/kg and the Drug uptake [36] was 6.5 mg/kg. The Drug uptake [37] was 0.082 mg/kg and the Drug uptake [38] was 5.4 mg/kg.

From ChEMBL document CHEMBL3045670, “Protective effect of selenium in Broccoli (Brassica oleracea) plants subjected to cadmium exposure” (J Agric Food Chem, 2008)
